Results published in the NIST ThermoML archive (doi:10.1016/j.fluid.2010.09.006).

Settings: 345.7 K; Crystal; visual observation

c1ccc2ccccc2c1 [naphthalene]
vapor or sublimation pressure: 3000 kPa
